From patent US5217960A, “Erythromycin derivatives” (priority 1991, dated 1993)
In brackets after ≈: the same amount, converted by molar mass. Where two headings read alike, the source gives them in different places.

What was measured:
Format in all cases: cell-based
[1] = tested on: STAPHYLOCOCCUS AUREUS ATCC 6538P; test: In vitro antibacterial activity, agar dilution MIC; conditions: ATCC6538P
[2] = tested on: STAPHYLOCOCCUS AUREUS A5177; test: In vitro antibacterial activity, agar dilution MIC; conditions: S. aureus A5177, BHI agar, 35-37° C., 20 to 24 hours, read-out: MIC
STAPHYLOCOCCUS AUREUS 45 = test: In vitro antibacterial activity, agar dilution MIC; conditions: 24 h
[3] = tested on: STAPHYLOCOCCUS AUREUS NCTC 10649; test: In vitro antibacterial activity, agar dilution MIC; conditions: NCTC10649, 24 h
[4] = tested on: STAPHYLOCOCCUS AUREUS CMX 553; test: In vitro antibacterial activity, agar dilution MIC
[5] = tested on: STAPHYLOCOCCUS AUREUS 1775; test: In vitro antibacterial activity, agar dilution MIC; conditions: S. aureus 1775, BHI agar, 35-37° C., 20 to 24 hours, read-out: MIC
[6] = tested on: STAPHYLOCOCCUS EPIDERMIDIS 3519; test: microbe, parasite or virus in culture
EN[…] ATCC 8043 = test: In vitro antibacterial activity, agar dilution MIC; conditions: Enterococcus faecium, ATCC8043, 24 h
Method: (§1) Representative compounds of the present invention were assayed in vitro for antibacterial activity as follows: Twelve petri dishes containing successive aqueous dilutions of the test compound mixed with 10 ml of sterilized Brain Heart Infusion (BHI) agar (Difco 0418-01-5) were prepared. Each plate was inoculated with 1:100 (or 1:10 for slow-growing strains, such as Micrococcus and Streptococcus) dilutions of up to 32 different microorganisms, using a Steers replicator block. The inoculated plates were incubated at 35°-37° C. for 20 to 24 hours. In addition, a control plate, using BHI agar containing no test compound, was prepared and incubated at the beginning and end of each test.
(§2) An additional plate containing a compound having known susceptibility patterns for the organisms being tested and belonging to the same antibiotic class as the test compound was also prepared and incubated as a further control, as well as to provide test-to-test comparability. Erythromycin A was used for this purpose.
(§3) After incubation, each disk was read. The minimum inhibitory concentration (MIC) was defined as the lowest concentration of drug yielding no growth, a slight haze, or sparsely isolated colonies on the inoculum spot as compared to the growth control. The results of this assay, shown below in Tables 1 and 2, support the conclusion that the compounds of the invention are effective antibacterial agents.

M[…] ATCC 4698 = test: In vitro antibacterial activity, agar dilution MIC; conditions: Micrococcus luteus, ATCC4698, 24 h
Method: as §1, §2, §3

M[…] ATCC 9341 = test: In vitro antibacterial activity, agar dilution MIC; conditions: Micrococcus luteus, ATCC9341, 24 h
Method: as §1, §2, §3

[7] = tested on: PSEUDOMONAS AERUGINOSA K799/61; test: In vitro antibacterial activity, agar dilution MIC
Method: as §1, §2, §3

[8] = tested on: STREPTOCOCCUS BOVIS A5169; test: In vitro antibacterial activity, agar dilution MIC; conditions: 24 h
STR[…] 508 = test: In vitro antibacterial activity, agar dilution MIC; conditions: Streptococcus agalactiae, 24 h
Method: as §1, §2
(§4) After incubation, each disk was read. The minimum inhibitory concentration (MIC) was defined as the lowest concentration of drug yielding no growth, a slight haze, or sparsely isolated colonies on the inoculum spot as compared to the growth control.

STR[…] EES61 = test: In vitro antibacterial activity, agar dilution MIC; conditions: Streptococcus pyogenes, 24 h
Method: as §1, §2, §4

[9] = tested on: STREPTOCOCCUS PYOGENES 930 CONST; test: In vitro antibacterial activity, agar dilution MIC; conditions: S. pyogenes 930 CONST, BHI agar, 35-37° C., 20 to 24 hours, read-out: MIC
[10] = tested on: STREPTOCOCCUS PYOGENES 2548 INDUC; test: In vitro antibacterial activity, agar dilution MIC; conditions: 24 h
ESCHERICHIA COLI JUHL = test: microbe, parasite or virus in culture
ESCHERICHIA COLI SS = test: In vitro antibacterial activity, agar dilution MIC; conditions: 24 h
ESCHERICHIA COLI DC-2 = test: In vitro antibacterial activity, agar dilution MIC
ESCHERICHIA COLI H560 = test: In vitro antibacterial activity, agar dilution MIC
ESCHERICHIA COLI KNK 437 = test: microbe, parasite or virus in culture; conditions: E. coli KNK 437, BHI agar, 35-37° C., 20 to 24 hours
[11] = tested on: ENTEROBACTER AEROGENES ATCC 13048; test: In vitro antibacterial activity, agar dilution MIC; conditions: Klebsiella aerogenes, ATCC13048; E. aerogenes ATCC 13048; BHI agar, 35-37° C., 20 to 24 hours; read-out: MIC
[12] = tested on: KLEBSIELLA PNEUMONIAE ATCC 8045; test: In vitro antibacterial activity, agar dilution MIC; conditions: ATCC8045, 24 h
[13] = tested on: PROVIDENCIA STUARTII CMX 640; test: microbe, parasite or virus in culture
[14] = tested on: PSEUDOMONAS AERUGINOSA BMH10; test: In vitro antibacterial activity, agar dilution MIC
[15] = tested on: PSEUDOMONAS AERUGINOSA A5007; test: In vitro antibacterial activity, agar dilution MIC; conditions: P. aeruginosa A5007, BHI agar, 35-37° C., 20 to 24 hours
[16] = tested on: PSEUDOMONAS AERUGINOSA K799/WT; test: In vitro antibacterial activity, agar dilution MIC; conditions: P. aeruginosa K799/WT, BHI agar, 35-37° C., 20 to 24 hours
PSEUDOMONAS CEPACIA 296I = test: In vitro antibacterial activity, agar dilution MIC; conditions: Burkholderia cepacia; P. cepacia 296I; BHI agar, 35-37° C., 20 to 24 hours; read-out: MIC
[17] = tested on: ACINETOBACTER CALCOACETICUS CMX 669; test: In vitro antibacterial activity, agar dilution MIC; conditions: A. calcoaceticus CMX 669, BHI agar, 35-37° C., 20 to 24 hours
[18] = tested on: STAPHYLOCOCCUS AUREUS 642A; test: In vitro antibacterial activity, agar dilution MIC; conditions: 24 h

SMILES | MIC [2] [µg/mL] | MIC (STAPHYLOCOCCUS AUREUS 45) [µg/mL] | MIC [3] [µg/mL] | MIC [5] [µg/mL] | MIC (EN[…] ATCC 8043) [µg/mL] | MIC (M[…] ATCC 4698) [µg/mL] | MIC (M[…] ATCC 9341) [µg/mL] | MIC [8] [µg/mL] | MIC (STR[…] 508) [µg/mL] | MIC (STR[…] EES61) [µg/mL] | MIC [9] [µg/mL] | MIC [10] [µg/mL] | MIC (ESCHERICHIA COLI SS) [µg/mL] | MIC (ESCHERICHIA COLI KNK 437) [µg/mL] | MIC [11] [µg/mL] | MIC [12] [µg/mL] | MIC [15] [µg/mL] | MIC [16] [µg/mL] | MIC (PSEUDOMONAS CEPACIA 296I) [µg/mL] | other results
CC[C@H]1OC(=O)[C@H](C)[C@@H](O[C@H]2C[C@@](C)(OC)[C@@H](O)[C@H](C)O2)[C@H](C)[C@@H](O[C@@H]2O[C@H](C)C[C@H](N(C)C)[C@H]2O)[C@](C)(O)C[C@@H](C)[C@@H](N(C)C)[C@H](C)[C@@H](O)[C@@]1(O)CNC [Compound 17, (9R)-9-deoxo-9-(N,N-dimethylamino)-21-(N-methylamino)-erythromycin A] | > 100 | 6.2 (≈ 7.83 µM) | 6.2 (≈ 7.83 µM) | > 100 | 3.1 (≈ 3.91 µM) | 1.56 (≈ 1.97 µM) | 1.56 (≈ 1.97 µM) | 0.78 (≈ 0.985 µM) | 1.56 (≈ 1.97 µM) | 0.78 (≈ 0.985 µM) | > 100 | 50 (≈ 63.1 µM) | 0.78 (≈ 0.985 µM) | 25 (≈ 31.6 µM) | 100 (≈ 126 µM) | 50 (≈ 63.1 µM) | > 100 | > 100 | > 100 | MIC ([1]; S. aureus ATCC 6538P, BHI agar, 35-37° C., 20 to 24 hours, read-out: MIC): 12.5 µg/mL (≈ 15.8 µM); MIC ([4]; S. aureus CMX 553, BHI agar, 35-37° C., 20 to 24 hours, read-out: MIC): 12.5 µg/mL (≈ 15.8 µM); MIC ([6]; S. epidermidis 3519, BHI agar, 35-37° C., 20 to 24 hours, read-out: MIC): 12.5 µg/mL (≈ 15.8 µM); MIC ([7]; 24 h): 3.1 µg/mL (≈ 3.91 µM); MIC (ESCHERICHIA COLI JUHL; 24 h): 50 µg/mL (≈ 63.1 µM); MIC (ESCHERICHIA COLI DC-2; 24 h): 50 µg/mL (≈ 63.1 µM); MIC (ESCHERICHIA COLI H560; E. coli H560, BHI agar, 35-37° C., 20 to 24 hours, read-out: MIC): 12.5 µg/mL (≈ 15.8 µM); MIC ([13]; 24 h): > 100 µg/mL; MIC ([14]; P. aeruginosa BMH10, BHI agar, 35-37° C., 20 to 24 hours, read-out: MIC): 100 µg/mL (≈ 126 µM); MIC [17]: 100 µg/mL (≈ 126 µM)
CC[C@H]1OC(=O)[C@H](C)[C@@H](O[C@H]2C[C@@](C)(OC)[C@@H](O)[C@H](C)O2)[C@H](C)[C@@H](O[C@@H]2O[C@H](C)C[C@H](N(C)C)[C@H]2O)[C@](C)(O)C[C@@H](C)[C@@H](N)[C@H](C)[C@@H](O)[C@@]1(O)CNCc1ccccc1 [Compound 14, (9R)-9-amino-21-benzylamino-9-deoxo-erythromycin A] | > 100 | 6.2 (≈ 7.38 µM) | 3.1 (≈ 3.69 µM) | > 100 | 3.1 (≈ 3.69 µM) | 3.1 (≈ 3.69 µM) | 0.78 (≈ 0.928 µM) | 0.2 (≈ 0.238 µM) | 0.39 (≈ 0.464 µM) | 0.2 (≈ 0.238 µM) | > 100 | 3.1 (≈ 3.69 µM) | 0.78 (≈ 0.928 µM) | 100 (≈ 119 µM) | > 100 | 50 (≈ 59.5 µM) | > 100 | > 100 | > 100 | MIC ([1]; 24 h): 3.1 µg/mL (≈ 3.69 µM); MIC [18]: 6.2 µg/mL (≈ 7.38 µM); MIC ([4]; 24 h): 6.2 µg/mL (≈ 7.38 µM); MIC ([6]; 24 h): 1.56 µg/mL (≈ 1.86 µM); MIC ([7]; P. aeruginosa K799/61, BHI agar, 35-37° C., 20 to 24 hours, read-out: MIC): 25 µg/mL (≈ 29.8 µM); MIC (ESCHERICHIA COLI JUHL; E. coli JUHL, BHI agar, 35-37° C., 20 to 24 hours, read-out: MIC): 100 µg/mL (≈ 119 µM); MIC (ESCHERICHIA COLI DC-2; E. coli DC-2, BHI agar, 35-37° C., 20 to 24 hours, read-out: MIC): 100 µg/mL (≈ 119 µM); MIC (ESCHERICHIA COLI H560; 24 h): 25 µg/mL (≈ 29.8 µM); MIC ([13]; P. stuartii CMX 640, BHI agar, 35-37° C., 20 to 24 hours): > 100 µg/mL; MIC ([14]; 24 h): 50 µg/mL (≈ 59.5 µM)
